Test results reported in ChEMBL document CHEMBL1132126, “Synthesis of spermidine and norspermidine dimers as high affinity polyamine transport inhibitors” (Bioorg Med Chem Lett, 1999).

Columns and labels:
Assay type in all cases: functional, cell-based
T47D [1] = test: Inhibition of [3H]putrescine transport by the compound was evaluated in T-47D human breast cancer cells
T47D [2] = test: Inhibition of [3H]spermidine transport by the compound was evaluated in T-47D human breast cancer cells
T47D [3] = test: Inhibition of [3H]spermine transport by the compound was evaluated in T-47D human breast cancer cells
ZR-75-1 = test: Inhibition of [3H]spermine transport by the compound was evaluated in ZR-75-1 human breast cancer cells

| Structure (SMILES) | Ki (T47D [1]) | Ki (T47D [2]) | Ki (T47D [3]) | Ki (ZR-75-1) |
| --- | --- | --- | --- | --- |
| NCCCNCCCC(NCCCN)C(=O)NCCSSCCNC(=O)C(CCCNCCCN)NCCCN (stereo not drawn) | 3100 nM | 12600 nM | 15.9 µM | 4000 nM |
| NCCCCN(CC#CCN(CCCN)CCCCN)CCCN | 1900 nM | 16900 nM | 27.7 µM |  |
| NCCCCN(CCCN)Cc1ccc(CN(CCCN)CCCCN)cc1 | 280 nM | 2000 nM | 2.9 µM | 240 nM |
| NCCCN(C/C=C/CN(CCCN)CCCN)CCCN | 270 nM | 2000 nM | 1.6 µM |  |
| NCCCCN(CCCN)CCCCN(CCCN)CCCCN | 720 nM | 4900 nM | 4.3 µM |  |
| NCCCN(CCCN)C(=O)CCC(=O)N(CCCN)CCCN |  |  |  | 1700 nM |
| NCCCN(CCCN)Cc1ccc(CN(CCCN)CCCN)cc1 | 160 nM | 1500 nM | 1.5 µM | 700 nM |
| NCCCN(CCCN)CCCCN(CCCN)CCCN | 520 nM | 2400 nM | 6.2 µM | 560 nM |
| NCCCN(CC#CCN(CCCN)CCCN)CCCN | 2600 nM | 25600 nM | 12.8 µM |  |
| NCCCCN(C/C=C/CN(CCCN)CCCCN)CCCN | 100 nM | 1800 nM | 1.5 µM |  |
| NCCCCN [PUTRESCINE] | 7400 nM |  |  |  |
| NCCCCNCCCN [SPERMIDINE] |  | 4400 nM |  |  |
| NCCCNCCCCNCCCN [SPERMINE] | 650 nM | 920 nM | 2.7 µM | 200 nM |
